Data from patent US20240238380A1, “COMPOSITION FOR COMBINATION THERAPY COMPRISING GROWTH DIFFERENTIATION FACTOR-15 VARIANT AND GLUCAGON-LIKE PEPTIDE-1 RECEPTOR AGONIST” (YUHAN CORPORATION, priority 2021, published 2024).
Marks after values point to notes of the source that are not given here.

Experiments:
[1] = target: T1, GFRAL/RET/SRE-luc-overexpressing HEK293 cell line (Homo sapiens, UniProt Q6UXV0); assay: Functional activity of long-acting GDF15 fusion protein (Bright-Glo luciferase assay); type: cell-based; conditions: relative to FM9-6+Fc_hole (Emax 100%)
T1 construct: expressed in transfected cells; host or cells: HEK293 (human embryonic kidney 293), overexpressing GFRAL, RET and an SRE-luciferase reporter
Procedure: Two variants (FM9+Fc_hole, FM11+Fc_hole) were compared and evaluated for GDF15 activity depending on the linker type and length. The GDF15 activity was measured using a Bright-Glo™ luciferase assay kit (Promega) and a GFRAL/RET/SRE-luc-overexpressing HEK293 cell line (Human embryonic kidney 293).
Specifically, 1×10^5 GFRAL/RET/SRE-luc-overexpressing HEK293 cells were dispended in DMEM containing 10% FBS in each well of a 96-well-plate, followed by culture at 37° C. and 5% CO2 for 24 hours. After 24 hours, each medium of the 96-well plate was replaced with 50 μl of a serum-free medium, followed by culture at 37° C. and 5% CO2 for 4 hours.
In addition, the long-acting GDF15 fusion protein produced in Example 1 was prepared by 3-fold serial dilution from a concentration of 2000 nM using a serum-free medium. Thereafter, 50 μl of the long-acting GDF15 fusion protein dilution was added to each well containing 50 μl of the replaced serum-free medium and the GERAL/RET/SRE-luc cell line so that the actual concentration thereof was serially diluted 3-fold from 1000 nM, followed by reaction at 37° C. and 5% CO2 for 4 hours. After 4 hours, each well was treated with 100 μl of a Bright-Glo™ solution prepared by adding a Bright-Glo™ buffer to a Bright-Glo™ substrate, followed by reaction at room temperature for 1 minute.
Thereafter, the reaction value (relative light units, RLU) was measured using a microplate reader (Perkin Elmer, Wallac Victor X5) capable of measuring luminescence. The results thereof are shown in Table 2 below and in FIGS. 1 and 2. Here, the functional activity of the long-acting GDF15 fusion protein depending on the GDF15 sequence, linker type, and length was compared based on the in-vitro GDF15 activity of FM9-6+Fc_hole (Emax 100%).

[2] = Anti-obesity and metabolic parameter effects alone and in combination with large dose of semaglutide in ob/ob mice (Example 6); type: in vivo; conditions: 1 nmol/kg s.c. Q3D
Excerpt: 5-week-old male ob/ob mice (Jackson Laboratory, USA) were purchased from Raon Bio (Animal Inc., Republic of Korea). The ob/ob mice were acclimatized with normal chow or normal chow diet (Teklad Certified Irradiated Global 18% Protein Rodent Diet, 2918C, Harlan Co., USA) for 5 weeks, and drug treatment was started at 10 weeks of age. On the day before drug treatment, the mice were grouped based on the body weight of individual mice and random blood glucose levels determined by sampling at the tail vein (n=6 per group). Thereafter, 1 nmol/kg of FM9-6+Fc_hole alone, 30 nmol/kg of semaglutide alone, and FM9-6+Fc_hole and semaglutide in combination (1+30 nmol/kg) were subcutaneously administered thereto a total of 9 times every 3 days (Q3D), and body weight, food intake, and non-fasting blood glucose were measured every day or every 3 days during the experimental period (24 days). Here, DPBS (Dulbecco's phosphate-buffered saline, Gibco, USA) was administered for vehicle treatment.

[3] = Anti-obesity effect alone and in combination with semaglutide or tirzepatide in DIO mice (Example 7); type: in vivo; conditions: for Change in body weight (%) vs. day 0, Maximum efficacy: 4 weeks
Excerpt: Diet-induced obese (DIO) mice, obtained by feeding mice with high-fat diet, are characterized by obesity, hyperglycemia, and insulin resistance. Diet-induced obese mice (Taconic, USA) resulting from feeding C57BL/6N mice with high-fat food (60 kcal % fat, Research Diets, Cat #D12492, USA) for 8 weeks were purchased from Raon Bio (Animal Inc., Republic of Korea). The diet-induced obese mice were additionally fed with 60% high-fat food for 5 weeks after arrival, and then used in the present test. On the day before drug treatment, the mice were grouped based on the average body weight of individual mice (n=6 per group), after which 0.1 and 1 nmol/kg of FM9-6+Fc_hole alone, 10 nmol/kg of semaglutide (long-acting GLP-1 derivative, SEQ ID NO: 114) and 10 nmol/kg of tirzepatide (long-acting GLP-1/GIP derivative, SEQ ID NO: 117) alone as control drugs, FM9-6+Fc_hole and semaglutide at doses of 0.1+10 and 1+10 nmol/kg in combination, and FM9-6+Fc_hole and tirzepatide at doses of 1+10 nmol/kg in combination were subcutaneously administered thereto every 3 days (Q3D) for a total of 4 weeks. The semaglutide that was used in the test was Ozempic® (semaglutide) from Novo NorDisk, and the tirzepatide that was used was a material synthesized by MedChemExpress (HY-P1731B, USA). Here, DPBS (Dulbecco's phosphate-buffered saline, Gibco, USA) was administered for vehicle treatment, and, during the experimental period (26 days), body weight was measured every day and food intake was measured every 3 days.

T1 sequence (Q6UXV0 19-394, species assumed): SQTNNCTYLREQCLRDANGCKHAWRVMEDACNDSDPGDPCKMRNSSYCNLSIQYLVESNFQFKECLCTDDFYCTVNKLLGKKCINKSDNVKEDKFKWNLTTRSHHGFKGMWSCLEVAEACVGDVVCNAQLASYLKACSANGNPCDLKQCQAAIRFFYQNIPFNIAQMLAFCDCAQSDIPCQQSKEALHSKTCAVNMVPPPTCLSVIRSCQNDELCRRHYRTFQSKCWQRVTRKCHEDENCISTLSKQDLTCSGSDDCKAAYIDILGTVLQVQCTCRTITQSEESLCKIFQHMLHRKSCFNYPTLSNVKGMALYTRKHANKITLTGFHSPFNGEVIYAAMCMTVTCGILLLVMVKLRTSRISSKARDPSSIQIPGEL
T1 sequence (P07949 29-1114 partner, species assumed): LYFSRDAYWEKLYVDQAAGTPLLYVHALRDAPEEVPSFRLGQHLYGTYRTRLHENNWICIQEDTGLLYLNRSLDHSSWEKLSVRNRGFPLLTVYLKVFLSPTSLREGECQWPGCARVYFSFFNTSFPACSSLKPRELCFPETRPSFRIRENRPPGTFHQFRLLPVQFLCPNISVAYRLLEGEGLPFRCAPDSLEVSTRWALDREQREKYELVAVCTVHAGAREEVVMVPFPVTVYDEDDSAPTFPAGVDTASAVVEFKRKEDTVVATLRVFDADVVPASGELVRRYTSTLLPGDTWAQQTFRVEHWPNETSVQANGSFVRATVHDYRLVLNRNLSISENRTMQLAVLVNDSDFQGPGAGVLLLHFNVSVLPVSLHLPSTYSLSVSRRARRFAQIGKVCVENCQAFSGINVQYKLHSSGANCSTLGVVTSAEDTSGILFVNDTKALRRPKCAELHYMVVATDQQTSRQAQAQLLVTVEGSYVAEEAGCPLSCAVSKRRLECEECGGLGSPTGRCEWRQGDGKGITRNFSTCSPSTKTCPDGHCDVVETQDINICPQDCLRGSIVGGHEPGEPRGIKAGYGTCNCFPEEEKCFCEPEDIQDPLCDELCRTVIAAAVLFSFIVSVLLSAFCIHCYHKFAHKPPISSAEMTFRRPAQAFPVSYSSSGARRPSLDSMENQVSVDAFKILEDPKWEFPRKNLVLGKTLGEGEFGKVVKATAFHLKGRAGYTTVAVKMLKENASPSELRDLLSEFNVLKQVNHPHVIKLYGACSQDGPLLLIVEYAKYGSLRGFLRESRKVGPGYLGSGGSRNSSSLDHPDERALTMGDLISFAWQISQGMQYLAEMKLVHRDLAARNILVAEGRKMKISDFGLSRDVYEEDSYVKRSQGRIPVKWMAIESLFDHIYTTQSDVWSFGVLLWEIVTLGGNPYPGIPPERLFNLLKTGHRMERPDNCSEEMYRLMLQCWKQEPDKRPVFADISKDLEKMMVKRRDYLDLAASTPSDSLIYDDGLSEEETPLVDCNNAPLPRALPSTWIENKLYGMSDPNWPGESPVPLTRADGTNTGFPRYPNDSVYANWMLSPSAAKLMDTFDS

- Emax (%) [1]: 100.0%
Substance: FM9-6 + Fc_hole: long-acting GDF15 fusion protein (dimer): GDF15 ΔN2, S64R, IgG1 Fc_knob/Fc_hole, linker GS(EAAAK)5; SEQ ID NOs: 103 and 47
- Change in body weight (%) vs. ob/ob control, Efficacy on Day 24 [2]: −23.37**** %
- Mean of random blood glucose levels (mg/dL), Efficacy on Day 24 [2]: 116.2**** mg/dL
- Change in body weight (%) vs. day 0, Maximum efficacy ([3]; 0.1 nmol/kg s.c. Q3D): −6.75 (On Day 25)** %
- Change in body weight (%) vs. day 0, Efficacy on Day 26 ([3]; 0.1 nmol/kg s.c. Q3D): −6.68** %
- Change in body weight (%) vs. day 0, Maximum efficacy ([3]; 1 nmol/kg s.c. Q3D): −16.33 (On Day 23)**** %
- Change in body weight (%) vs. day 0, Efficacy on Day 26 ([3]; 1 nmol/kg s.c. Q3D): −16.29**** %
